This note sets out measurements from patent US20140350050A1, “PYRIDINE COMPOUNDS AS INHIBITORS OF KINASE” (TELIGENE LTD., priority 2011, published 2014).

Like-named read-outs stand apart in the source and are kept apart here.

The test system of experiment [1] is EML4-ALK-BAF3 cell line xenograft. Format: in vivo. The following applies: Table C, 40 mg/kg oral gavage once daily. An excerpt: A representative protocol for the in vivo experiment is as followed to establish the subcutaneous EML4-ALK-BAF3 cell line xenograft model in nude mice and to evaluate the in vivo therapeutic efficacy of the compounds: Animals: Male Balb/c nude mice (6˜8 weeks old) were obtained from SLAC Laboratory Animal, Shanghai, China. Animals were maintained under SPF conditions in sterile filter top cages and housed on HEPA-filtered ventilated racks. Animals received sterile rodent chow and water ad libitum. Cell line: BAF3-EML4-ALK stable cell line, the BAF3 cell which could expressed fusion oncogene EML4-ALK. S.c. Xenograft Models in Athymic Mice: Cells for implantation into athymic mice were harvested and pelleted by centrifugation at 1200 r/min for 5 min. Cells were washed once and resuspended in sterile PBS buffer with 5×10^6 in 200 μl. Then cells were implanted s.c. into the right scapular region of each mouse and allowed to grow to 200˜300 mm^3 before the administration of compound. Preparation of the Dose Formulation: each compound was suspensioned in 0.5% CMC-Na. Randomization: When tumor volumes approach 200˜300 mm^3, the mice will be randomized into 5 groups according to the tumor volume. The day will be denoted as D1 and the treatments will be started at this day. Administered: Dose will be administered with oral gavage needle once daily for number of days. Treatment of compounds administered in 0.5% CMC-Na by p.o. gavage was initiated when tumors were 200˜300 mm^3 in volume. Observations: After inoculation, the animals will be checked daily for morbidity and mortality. At the time of routine monitoring, the animals will be checked for any effects of tumor growth and treatments on normal behavior such as mobility, body weight gain/loss (body weights will be measured twice weekly or every other day), eye/hair matting and any other abnormal effect. Death and observed clinical signs will be recorded on the basis of the numbers of animals within each subset. Tumor Size Measurements: Tumor volume was determined by measurement with electronic vernier calipers every 3 days and tumor volume was calculated as the product of its length×width^2×0.5. Effect studies: Tumor volume was expressed on indicated days as the mean tumor volume ±SD. […] Significant differences between the treated versus the control groups (p<0.05) were determined using t test. At study endpoint, after blood collection, mice were practiced euthanasia by cervical dislocation, the tumor tissue was collected first, then abdominal cavity was cut open, liver and spleen were excised, then weight after the gallblader was removed respectively. Organ weight and Organ/body weight ratios between the treated versus the control groups were compared. Ratios was calculated as follows: Ratios=Organ weight/(body weight-tumor weight). Both organ weight and Organ/body weight ratios were also expressed as mean±SD, and significant differences between the treated versus the control groups (p<0.05) were determined using t test.

Experiment [2] has as its target T1, BAF3-EML4-ALK stable cell line (Homo sapiens, UniProt Q9UM73).
T1 construct: fused on or other part: Q9HC35 (Echinoderm microtubule-associated protein-like 4)
Description: BAF3-EML4-ALK cell assay (MTT cell proliferation). The following applies: 72 hours, read-out: BAF3-EML4-ALK Cell (IC50 grading). Type of experiment: cell-based. As to the method:
BAF3-EML4-ALK Cell Assay:
A method of establishing BAF3-EML4-ALK stable cell line: Transfer 5×10^6 BAF3 cells to a new tube, pellet the cells, and remove PBS by aspiration.; Resuspend the cells in 1 ml electroporation buffer, this provides 5×10^6 of cells; Transfer 200 μl of cell suspension to EP tube, add 5 ug DNA, flip and place it on ice for 10 min; Pipet the 200 μl cell suspension into 2 mm electroporation cuvette; Place the cuvette into shockpod, close the lid, and press the PULSE button; Set parameters: Expentional decay pulse: VOL=200 V; CAP=900 uF, RES=1000Ω; Transfer all cells from electroporation cuvette to 6 well plate, adding 2 ml DMEMF12 containing 5 ng/ml IL3, 24 h later, replace the medium with DMEM F12 containing 2 μg/ml blasticidin S and 5 ng/ml IL3, maintain for 3 days; change the medium with DMEM F12 containing 2 ug/ml blasticidin S and 2.5 ng/ml IL3, maintain 3 days; change the medium with DMEM F12 containing 2 ug/Ml blasticidin S, maintain to culture.
MTT Cell proliferation assay: 5×10^3 per well cell with 100 μl medium was seeded in 96-well plate; 24 hours later, 100 μl fresh medium with various concentration of compounds; After the cells were treated by compounds for 72 hours, add 20 μl MTT (5 mg/ml) into each wells; The plate is incubated at 37° C. for 4 hours; Centrifuge the plate at 800 g for 10 mins, Aspirated the medium, add 150 μl DMSO into each well. Shake plates gently for 10 mins, Measure the absorbance at 570 nm on plate reader; IR=(WC−WT)/WC.

T1 sequence (Q9UM73 whole entry, change not shown, the tested form may be a part): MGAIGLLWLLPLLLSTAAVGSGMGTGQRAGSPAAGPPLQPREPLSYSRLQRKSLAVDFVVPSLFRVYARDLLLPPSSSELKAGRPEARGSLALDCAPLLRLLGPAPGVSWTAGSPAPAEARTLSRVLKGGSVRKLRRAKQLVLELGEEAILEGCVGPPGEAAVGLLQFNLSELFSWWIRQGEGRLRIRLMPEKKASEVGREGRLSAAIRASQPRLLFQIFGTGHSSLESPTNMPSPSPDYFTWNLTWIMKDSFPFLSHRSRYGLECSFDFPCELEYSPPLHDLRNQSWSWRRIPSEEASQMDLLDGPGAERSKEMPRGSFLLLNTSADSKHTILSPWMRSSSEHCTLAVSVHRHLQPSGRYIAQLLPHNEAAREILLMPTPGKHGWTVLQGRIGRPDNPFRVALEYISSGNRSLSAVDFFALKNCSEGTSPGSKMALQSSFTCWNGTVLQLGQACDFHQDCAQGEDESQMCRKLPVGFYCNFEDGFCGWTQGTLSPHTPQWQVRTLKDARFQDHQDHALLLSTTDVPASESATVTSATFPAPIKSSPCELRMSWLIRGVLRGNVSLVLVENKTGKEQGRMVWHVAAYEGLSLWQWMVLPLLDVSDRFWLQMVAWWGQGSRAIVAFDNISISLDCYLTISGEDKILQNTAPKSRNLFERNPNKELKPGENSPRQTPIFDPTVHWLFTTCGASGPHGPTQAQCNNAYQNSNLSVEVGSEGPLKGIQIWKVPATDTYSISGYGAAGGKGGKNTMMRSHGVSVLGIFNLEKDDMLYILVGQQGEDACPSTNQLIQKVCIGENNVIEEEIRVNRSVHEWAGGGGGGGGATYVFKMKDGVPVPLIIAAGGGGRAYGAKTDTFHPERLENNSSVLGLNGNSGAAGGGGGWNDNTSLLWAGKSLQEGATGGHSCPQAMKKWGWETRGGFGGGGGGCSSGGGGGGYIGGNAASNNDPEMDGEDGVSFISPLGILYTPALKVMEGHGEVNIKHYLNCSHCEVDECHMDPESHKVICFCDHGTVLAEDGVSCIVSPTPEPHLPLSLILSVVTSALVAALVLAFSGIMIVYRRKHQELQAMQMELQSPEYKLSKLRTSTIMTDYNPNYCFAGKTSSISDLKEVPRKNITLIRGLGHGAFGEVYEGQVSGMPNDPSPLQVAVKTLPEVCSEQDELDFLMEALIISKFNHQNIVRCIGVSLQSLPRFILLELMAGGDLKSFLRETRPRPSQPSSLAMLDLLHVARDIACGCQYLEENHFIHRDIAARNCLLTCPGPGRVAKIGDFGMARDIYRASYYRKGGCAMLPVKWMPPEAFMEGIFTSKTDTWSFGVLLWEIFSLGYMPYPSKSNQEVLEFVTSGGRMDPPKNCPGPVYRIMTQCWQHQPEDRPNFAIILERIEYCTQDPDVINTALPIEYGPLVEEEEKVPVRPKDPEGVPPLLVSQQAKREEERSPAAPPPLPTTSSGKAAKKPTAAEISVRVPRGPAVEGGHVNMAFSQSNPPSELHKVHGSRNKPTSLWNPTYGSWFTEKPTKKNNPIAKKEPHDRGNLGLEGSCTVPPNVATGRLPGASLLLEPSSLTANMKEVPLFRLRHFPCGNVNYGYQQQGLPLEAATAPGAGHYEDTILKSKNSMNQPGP

In the case of `[2H]C([2H])([2H])C([2H])([2H])N1CCC(n2cc(-c3cnc(N)c(O[C@H](C)c4c(Cl)ccc(F)c4Cl)c3)cn2)CC1` [Compound 22, (R)-3-(1-(2,6-dichloro-3-fluorophenyl)ethoxy)-5-(1-(1-d5-ethylpiperidin-4-yl)-1H-pyrazol-4-yl)pyridin-2-amine], the “Tumor growth inhibition (TGI, %)” value in experiment [1] (day 2) is listed as 22.58%; in experiment [1] (day 5) it was 53.72%; in experiment [1] (day 8) it was 66.61%; in experiment [1] (day 11) it was 82.97%; in experiment [1] (day 14), 87.64%. Further, the GI50 in experiment [2] is not above 100 nM.
